Experimental data as given in US20110306671A1, “AMIDE DERIVATIVES OF ETHACRYNIC ACID” (The Regents of the The University of California, priority 2008, published 2011).

Assays:
SW480 = experiment: Cytotoxicity of EA in tumor cell line SW480; assay type: cell-based; details: Homo sapiens, mean of at least two experiments
β-catenin = target: T1, β-catenin (Homo sapiens, UniProt P35222); experiment: Immunoprecipitation and immunoblotting with anti-EA antibody: β-catenin; assay type: binding
T1 construct: endogenous in cells
T1 sequence (P35222 whole entry): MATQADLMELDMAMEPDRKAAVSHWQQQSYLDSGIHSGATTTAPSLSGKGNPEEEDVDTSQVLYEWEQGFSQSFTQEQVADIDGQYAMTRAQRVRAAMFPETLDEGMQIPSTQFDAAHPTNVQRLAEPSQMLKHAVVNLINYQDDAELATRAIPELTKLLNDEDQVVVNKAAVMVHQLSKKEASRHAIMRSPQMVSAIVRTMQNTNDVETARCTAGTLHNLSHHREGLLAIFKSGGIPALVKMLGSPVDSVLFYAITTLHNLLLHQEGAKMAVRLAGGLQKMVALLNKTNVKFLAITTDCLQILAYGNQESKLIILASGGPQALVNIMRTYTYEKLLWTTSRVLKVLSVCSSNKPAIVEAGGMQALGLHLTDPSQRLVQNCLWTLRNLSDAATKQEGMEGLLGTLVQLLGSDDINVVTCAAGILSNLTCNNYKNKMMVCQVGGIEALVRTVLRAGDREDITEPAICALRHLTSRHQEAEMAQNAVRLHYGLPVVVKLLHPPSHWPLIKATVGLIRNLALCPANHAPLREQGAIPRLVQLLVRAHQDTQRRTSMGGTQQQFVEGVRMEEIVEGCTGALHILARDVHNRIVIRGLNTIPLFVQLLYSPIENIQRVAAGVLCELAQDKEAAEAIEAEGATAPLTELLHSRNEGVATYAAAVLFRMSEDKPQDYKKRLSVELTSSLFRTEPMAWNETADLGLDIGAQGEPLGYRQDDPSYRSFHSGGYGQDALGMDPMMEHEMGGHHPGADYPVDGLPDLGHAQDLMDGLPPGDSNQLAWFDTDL
Procedure: (§1) FIG. 6. EA binds to LEF-1 in primary CLL and SW480 cells. (A) lysates from CLL cells exposed to 10 μM EA for 8 hours or 24 hours were immunoprecipitated with anti-LEF-1 antibody. The immune complexes were analyzed by immunoblotting with anti-LEF-1 and anti-EA antibodies. (B) SW480 cells were treated with indicated amounts of EA for 16 hours. Cell lysates were immunoprecipitated with anti-β-catenin antibody (Santa Cruz Biotechnology, Santa Cruz, Calif.). The immune complexes were analyzed by immunoblotting with anti-EA and anti-β-catenin antibodies. (C) SW480 cells were exposed to 50 μM of EA for 16 hours and cell lysates were immunoprecipitated with anti-β-catenin antibody. The proteins in the immunoprecipitates were resolved by SDS-PAGE, transferred, and probed with indicated antibodies.
(§2) A conjugate of EA with Keyhole Limpet Hemocyanin (KLH, Sigma) was prepared by thiolation of KLH with N-succinimidyl S-acetylthioacetate (SATA), followed by allowing the SATA-KLH conjugate to form a Michael adduct with EA, as described in Hermanson (1996). Immunization of rabbits was performed by three 1 mL subcutaneous injections of approximately 0.4 mg EA-KLH conjugates. Complete Freund's adjuvant was used for the first injection. The second and third injections were performed 3 and 6 weeks after the first, using incomplete adjuvant. […]

LEF-1 = target: T2, LEF-1 (Homo sapiens, UniProt Q9UJU2); experiment: Immunoprecipitation and immunoblotting with anti-EA antibody: LEF-1; assay type: binding
T2 construct: endogenous in cells; host or cells: primary CLL cells from patients; SW480 cells
T2 sequence (Q9UJU2 whole entry): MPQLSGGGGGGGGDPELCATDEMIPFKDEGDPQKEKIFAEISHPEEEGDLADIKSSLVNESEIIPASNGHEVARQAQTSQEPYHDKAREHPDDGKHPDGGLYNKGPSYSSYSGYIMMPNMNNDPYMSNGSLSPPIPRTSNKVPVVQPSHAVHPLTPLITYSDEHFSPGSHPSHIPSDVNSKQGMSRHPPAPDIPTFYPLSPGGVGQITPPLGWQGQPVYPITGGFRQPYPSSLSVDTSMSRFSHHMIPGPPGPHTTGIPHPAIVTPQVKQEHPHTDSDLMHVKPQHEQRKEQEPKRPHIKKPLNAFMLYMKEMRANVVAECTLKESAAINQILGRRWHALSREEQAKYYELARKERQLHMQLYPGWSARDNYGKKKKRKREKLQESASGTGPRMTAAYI
Procedure: as §1, §2

FOPflash reporter = FOPflash reporter assay in HEK293 cells; assay type: cell-based, human; details: 50 μM EA, 24 hours
Procedure: FIG. 1. Inhibition of Wnt/β-catenin signaling by EA. […] Cells were lysed and luciferase activity was quantified. Total protein levels were determined by Bradford Assay and serve as a control for total cell number. (B) HEK293 cells were co-transfected with TOPflash reporter construct, along with expression plasmids for Wnt1, Wnt3, LRP6, Dvl and β-catenin as indicated. […] (C) HEK293 cells were transfected with FOPflash reporter with or without an expression plasmid for β-catenin. […] (D) HEK293 cells were transfected with NFAT reporter and expression plasmid for NFATc. […] The results are expressed as fold induction of luciferase activity compared to the basal level, and are the means of three experiments±SEM. For screening of the drug library, HEK293 cells were grown for at least 24 hours in 10 cm plates prior to transfection. At 50% confluence, cells were transfected with 5 μg of TOPflash reporter, 1 μg expression vector for Dvl, 1 μg of control plasmid pCMXβgal and carrier DNA pcDNA3 plasmid for a total of 10 μg/plate. After transfection for 24 hours, cells were harvested and dispersed in 96-well microtiter plates. […] Then luciferase values were determined. In the Results section, data are expressed as fold stimulation of luciferase activity compared to the basal level. […]

HCT116 = experiment: Cytotoxicity of EA in tumor cell line HCT116; assay type: cell-based; details: Homo sapiens, HCT-116, mean of at least two experiments
SK-Mel-28 = experiment: Cytotoxicity of EA in tumor cell line SK-Mel-28; assay type: cell-based; details: Homo sapiens, mean of at least two experiments
[1] = test system: Wnt3a-induced transcription; experiment: Stable Super8XTOPflash reporter HEK293 cells stimulated with Wnt3a; assay type: cell-based, human
Procedure: FIG. 1. Inhibition of Wnt/β-catenin signaling by EA. […] Cells were lysed and luciferase activity was quantified. Total protein levels were determined by Bradford Assay and serve as a control for total cell number. (B) HEK293 cells were co-transfected with TOPflash reporter construct, along with expression plasmids for Wnt1, Wnt3, LRP6, Dvl and β-catenin as indicated. […] (C) HEK293 cells were transfected with FOPflash reporter with or without an expression plasmid for β-catenin. […] (D) HEK293 cells were transfected with NFAT reporter and expression plasmid for NFATc. […] The results are expressed as fold induction of luciferase activity compared to the basal level, and are the means of three experiments±SEM. The Super8XTOPflash construct (kindly provided by Dr. R. Moon) was stably transfected into HEK293 cells, and single cell clones were isolated. […] (2003) and Willert et al. (2008).

binding to β-catenin (β-catenin; CLL extracts, data not shown): did not bind detectably | IC50 ([1]; Homo sapiens, HEK293, read-out: IC50 for inhibition of Wnt3A-induced transcription): ~25 µM
SMILES: C=C(CC)C(=O)c1ccc(OCC(=O)O)c(Cl)c1Cl [Compound 1, Ethacrynic acid]
IC50 (SW480): 68 µM | detection of precipitated β-catenin by anti-EA antibody (β-catenin; SW480 cells, 16 hours): could not be detected by anti-EA antibody | reaction of immunoprecipitated LEF-1 with anti-EA antibody (LEF-1; CLL lysates, EA 10 μM, 8 hours and 24 hours): reacted strongly with the anti-EA antibody | staining of the LEF-1 band with anti-EA antibody (LEF-1; SW480 cells, 50 μM EA, 16 hours, anti-β-catenin immunoprecipitate): stained positive with the anti-EA antibody only in the drug treated samples | effect on the FOPflash reporter (FOPflash reporter): no effect | IC50 (HCT116): 58 µM | IC50 (SK-Mel-28): 122 µM | effect on Wnt3a-induced transcription of the SuperTOPflash reporter ([1]; Wnt3a 10 nM, EA 20-35 μM, 18 hours): blocked Wnt3a-induced transcription in a dose-dependent manner
